Test results taken from the supplement of paper PMC10307832.

Legend:
Test in all cases: relative viability (nuclei count vs DMSO), 5 days (fraction); higher = more cells survive
[1] = compound: C1=CC=C2C(=C1)C=CC(=C2SSC3=C(C=CC4=CC=CC=C43)O)O [IPA-3] + CC(C)C[C@H](NC(=O)[C@H](Cc1ccccc1)NC(=O)c1cnccn1)B(O)O [Bortezomib] (partner 0.002 µM)
Procedure, shortened: (§1)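 Lung cancer cell lines were pin-tool dosed in 1536-well plates on the day after seeding, with either a lone drug or a fixed anchor-drug dose plus five library-drug doses (not always all listed) in √10 steps. Nuclei were counted on 4× images after 5 days. Relative viability is the ratio of treated-well to vehicle-well nuclei counts, with each value a median of duplicate plates.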

[2] = compound: Cn1c(Nc2ccc(C(F)(F)F)cc2)nc2cc(Oc3ccnc(-c4ncc(C(F)(F)F)[nH]4)c3)ccc21 [RAF265] + Nc1nc2[nH]cc(CCc3ccc(C(=O)N[C@@H](CCC(=O)O)C(=O)O)cc3)c2c(=O)[nH]1 [Pemetrexed] (partner 0.2 µM)
Procedure, shortened: as §1

[3] = compound: C1=CC=C2C(=C1)C=CC(=C2SSC3=C(C=CC4=CC=CC=C43)O)O [IPA-3] + C[C@]1(O)C[C@@H](c2nc(-c3ccc4ccc(-c5ccccc5)nc4c3)c3c(N)nccn32)C1 [Linsitinib] (partner 1 µM)
Procedure, shortened: as §1

[4] = compound: Cc1ccc(-n2nc(C(C)(C)C)cc2NC(=O)Nc2ccc(OCCN3CCOCC3)c3ccccc23)cc1 [Doramapimod] + CC(=O)c1c(C)c2cnc(Nc3ccc(N4CCNCC4)cn3)nc2n(C2CCCC2)c1=O [Palbociclib] (partner 0.5 µM)
Procedure, shortened: as §1

Cell Line	relative viability ([1]; first compound 0.2 µM)	relative viability ([1]; first compound 0.6325 µM)	relative viability ([1]; first compound 2 µM)	relative viability ([1]; first compound 6.325 µM)	relative viability ([1]; first compound 20 µM)	relative viability ([2]; first compound 0.01 µM)	relative viability ([2]; first compound 0.03162 µM)	relative viability ([2]; first compound 0.1 µM)	relative viability ([2]; first compound 0.3162 µM)	relative viability ([2]; first compound 1 µM)	relative viability ([3]; first compound 0.2 µM)	relative viability ([3]; first compound 0.6325 µM)	relative viability ([3]; first compound 2 µM)	relative viability ([3]; first compound 6.325 µM)	relative viability ([3]; first compound 20 µM)	relative viability ([4]; first compound 0.02 µM)	relative viability ([4]; first compound 0.06325 µM)	relative viability ([4]; first compound 0.2 µM)	relative viability ([4]; first compound 0.6325 µM)	relative viability ([4]; first compound 2 µM)
NCI-H2009	1.27	0.95	1.09	0.943	0.715	1.01	0.955	1.02	0.965	0.885	1.26	1.17	1.24	1.13	1.18	0.26	0.262	0.3	0.314	0.247
NCI-H1651	1.02	0.912	0.998	1.04	1.06	0.587	0.567	0.431	0.494	0.532	1.1	–	1.07	1.04	1.05	0.478	0.523	0.47	0.511	0.516
HARA	1.16	1.06	1.13	1.01	1.24	0.269	0.275	0.239	0.218	0.259	1.08	0.912	0.935	0.916	1.02	0.232	0.275	0.262	0.297	0.264
NCI-H2347	0.916	1.01	1.12	0.937	1.3	0.392	0.371	0.406	0.446	0.351	1.02	0.903	0.879	0.947	0.972	0.474	0.466	0.483	0.383	0.513
201T	1.08	0.931	1.08	1.12	1.13	0.352	0.316	0.344	0.311	0.313	0.986	0.992	1.04	1.04	1.09	0.363	0.351	0.321	0.368	0.336
PC-14	1.09	0.79	0.914	0.805	1.04	0.115	0.138	0.144	–	0.158	0.945	0.96	1.01	0.922	1.09	0.552	0.594	0.487	0.552	0.508
NCI-H1792	1.1	0.928	1.08	0.895	1.16	0.808	0.517	0.539	0.0889	0.118	0.626	0.449	0.693	0.518	0.666	0.701	0.645	0.598	0.596	0.546
COR-L23	1.12	0.946	1.06	0.939	0.802	0.188	0.206	0.202	0.182	0.184	1.13	0.837	0.92	0.797	0.819	0.29	0.317	0.298	0.338	0.283
HOP-62	1.09	0.858	0.722	0.701	0.93	0.261	0.306	0.267	0.246	0.245	0.903	1.07	0.754	1.05	1.2	0.369	0.483	0.497	0.524	0.485
NCI-H1915	1.15	0.974	0.952	0.971	1.09	0.463	0.419	0.486	0.406	0.361	1.12	1.13	1.11	1.08	1.09	0.507	0.547	0.469	0.525	0.487
BEN	0.807	0.707	0.806	0.823	0.799	0.795	0.835	0.99	0.798	0.692	0.986	1.01	0.974	1.05	1.18	0.462	0.459	0.504	0.387	0.541
NCI-H1437	1.09	0.467	0.443	0.438	0.587	0.346	0.296	0.326	0.285	0.278	1.25	0.933	0.988	0.975	1.3	0.337	0.31	0.278	0.368	0.304
EMC-BAC-2	1.16	1.11	1.04	1.04	1.22	0.432	0.406	0.427	0.347	0.258	0.855	0.808	0.884	0.804	0.907	0.512	0.501	0.508	0.503	0.465
NCI-H647	1.77	0.939	0.654	0.614	0.121	0.156	0.161	0.174	0.142	0.178	1.52	1.01	1.11	0.641	0.38	0.346	0.335	0.375	0.404	0.345
LXF-289	1.03	0.954	1.04	1.04	1.1	0.95	0.841	0.917	0.776	0.764	1.09	0.961	0.951	1.02	1.11	0.6	0.586	0.615	0.567	0.63
LOU-NH91	0.493	0.479	0.498	0.478	0.597	0.365	0.336	0.427	0.419	0.441	0.985	0.92	0.979	0.99	1.14	0.531	0.564	0.535	0.528	0.509

Cell Line	relative viability ([1]; first compound 0.2 µM)	relative viability ([1]; first compound 0.6325 µM)	relative viability ([1]; first compound 2 µM)	relative viability ([1]; first compound 6.325 µM)	relative viability ([1]; first compound 20 µM)	relative viability ([2]; first compound 0.01 µM)	relative viability ([2]; first compound 0.03162 µM)	relative viability ([2]; first compound 0.1 µM)	relative viability ([2]; first compound 0.3162 µM)	relative viability ([2]; first compound 1 µM)	relative viability ([3]; first compound 0.2 µM)	relative viability ([3]; first compound 0.6325 µM)	relative viability ([3]; first compound 2 µM)	relative viability ([3]; first compound 6.325 µM)	relative viability ([3]; first compound 20 µM)	relative viability ([4]; first compound 0.02 µM)	relative viability ([4]; first compound 0.06325 µM)	relative viability ([4]; first compound 0.2 µM)	relative viability ([4]; first compound 0.6325 µM)	relative viability ([4]; first compound 2 µM)
NCI-H23	1.39	0.964	1.08	1.06	0.797	0.633	0.573	0.53	0.351	0.366	0.613	0.667	0.522	0.603	0.645	0.458	0.485	0.482	0.52	0.568
NCI-H1993	1.04	1.14	1.14	1.1	1.21	0.548	0.605	0.508	0.51	0.581	0.707	0.688	0.761	0.782	0.612	0.641	0.58	0.621	0.596	0.504
HCC-827	1.1	0.936	1.01	0.996	1	0.281	0.24	0.214	–	0.278	0.916	0.943	0.935	0.917	0.925	0.456	0.479	0.493	0.475	0.329
NCI-H650	0.972	0.83	0.798	0.858	1.22	0.96	0.76	0.734	0.573	0.505	0.89	0.966	0.877	0.788	1.07	0.368	0.341	0.395	0.343	0.345
CAL-12T	0.956	0.987	0.847	0.935	1.15	1.21	0.925	1.13	0.978	0.661	0.93	0.715	0.914	0.79	0.935	0.413	0.45	0.421	0.434	0.511
NCI-H838	1.89	0.847	0.667	1.03	0.815	0.269	0.269	0.265	0.299	0.237	1.34	0.983	1.1	0.978	1.13	0.218	0.217	0.203	0.225	0.199
NCI-H2228	1.24	1.04	1.07	1.15	0.855	0.325	0.353	0.303	0.297	0.268	0.706	0.857	0.642	0.715	0.887	0.797	1.04	0.746	0.686	0.66
RERF-LC-KJ	1.33	1.36	1.12	1.25	1.18	0.504	0.482	0.503	0.46	0.51	0.965	0.876	0.875	0.811	1.01	1.11	1.04	1.06	1.17	1.2
NCI-H661	0.972	0.779	0.915	0.967	0.897	0.941	0.873	0.835	0.701	0.615	0.52	0.466	0.712	0.598	0.646	0.447	0.407	0.404	0.427	0.39
HCC-366	1.36	0.996	1.04	1.08	1.25	0.153	0.146	0.185	0.208	0.132	0.996	0.627	0.723	0.756	0.696	0.397	0.379	0.373	0.412	0.351
SK-LU-1	1.14	1.21	1.09	1.19	1.62	0.893	0.838	0.711	0.544	0.435	1.44	–	1.27	0.893	1.11	0.4	0.4	0.396	0.401	0.337
HCC-44	0.918	0.852	0.897	0.894	0.835	0.647	0.597	0.655	0.622	0.653	0.772	0.588	0.708	0.632	0.686	0.96	1	0.97	0.904	0.891
A-427	0.976	0.974	1.01	0.942	1.01	1.06	0.939	1.03	0.678	0.468	1.13	0.951	1.18	1.12	1.13	0.488	0.521	0.52	–	0.54
SW 1573	1.18	1.04	1.36	1.13	1.25	0.872	0.833	0.753	0.6	0.634	1.07	0.921	0.682	0.833	0.843	0.449	0.358	0.298	0.354	0.313
NCI-H322M	1.31	1.21	1.19	1.32	1.23	0.587	0.605	0.472	0.357	0.335	1.01	0.941	0.987	0.947	0.978	0.458	0.492	0.483	0.554	0.486
NCI-H2023	1.19	0.9	1.05	1.17	1.11	0.21	0.251	0.21	0.251	0.236	0.85	0.681	0.841	0.735	0.921	0.299	0.367	0.296	0.392	0.323
